Experimental data from patent publication US12516056B2, “Compounds for inhibition of janus kinase 1” (MANKIND PHARMA LTD., priority 2019, dated 2026).
Structures can show the parent of a compound that is named as a salt. Where two headings read alike, the source gives them in different places.

Key:
Recombinant TYK2 = target: T1, Recombinant TYK2 (Homo sapiens, UniProt P29597); test: JAK biochemical assay (LANCE Ultra TR-FRET), TYK2; conditions: recombinant TYK2, TR-FRET; read-out: Biochemical Assay (μM) TYK2
T1 construct: purchased Carna Biosciences
Outline: (§1)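 TR-FRET read-out of ULight substrate phosphorylation by recombinant kinase gives % inhibition relative to vehicle. The assay buffer is HEPES pH 7.5 with EGTA, MgCl2, DTT and Tween-20.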

[1] = test system: STAT3 phosphorylation by IL-6 in TF-1 cells; test: JAK cellular assay: STAT3 phosphorylation by IL-6 in TF-1 cells (HTRF); format: cell-based; conditions: Homo sapiens, TF-1, TF-1 cells, IL-6 30 ng/ml, pSTAT3 HTRF; read-out: Cell Based Assay (μM) TF-1/IL-6/pSTAT3
Outline: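 TF-1 cells starved overnight in low-serum OptiMEM, then 120,000/well in RPMI, preincubated with compound 30 min at 37 °C (0.2% DMSO final). Stimulation 20 min with IL-6 30 ng/ml (pSTAT3) or GMCSF 5 ng/ml (pSTAT5); lysate phospho-STAT by HTRF, unstimulated background subtracted.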

[2] = test system: STAT5 phosphorylation by IL-2 in HT-2 cells; test: STAT5 phosphorylation by IL-2 in HT-2 cells (HTRF); format: cell-based; conditions: IL-2 50 U/ml, pSTAT5 HTRF, read-out: Cell Based Assay (μM) HT-2/IL-2/pSTAT5
Description: HT-2 cells were starved […] in RPMI phenol red with 10% fetal bovine serum for 4 hours in CO2 incubator maintained at 37° c. Compounds were diluted in DMSO and added to 96 well plate containing a final density of 1,20,000 cells per well. Cells and compounds are incubated for 30 minutes in CO2 incubator maintained at 37° C. and final DMSO concentration in cell based assay was 0.2%. Human recombinant cytokine, IL-2 (50 U/ml) was added to the plate containing cells and compound and incubated for 20 minutes with gentle tapping/shaking at every 5 minutes once. Compound mediated effects on STAT5 phosphorylation was measured in the lysates prepared by using CISBIO pSTAT5 detection kit by HTRF method. Background signal obtained from cells which were not activated with cytokines, was subtracted from vehicle controls and compound treated wells.

Recombinant JAK3 = target: T2, Recombinant JAK3 (Homo sapiens, UniProt P52333); test: JAK biochemical assay (LANCE Ultra TR-FRET), JAK3; conditions: recombinant JAK3, TR-FRET; read-out: Biochemical Assay (μM) JAK3
T2 construct: purchased Carna Biosciences
T2 sequence (P52333 1-1124): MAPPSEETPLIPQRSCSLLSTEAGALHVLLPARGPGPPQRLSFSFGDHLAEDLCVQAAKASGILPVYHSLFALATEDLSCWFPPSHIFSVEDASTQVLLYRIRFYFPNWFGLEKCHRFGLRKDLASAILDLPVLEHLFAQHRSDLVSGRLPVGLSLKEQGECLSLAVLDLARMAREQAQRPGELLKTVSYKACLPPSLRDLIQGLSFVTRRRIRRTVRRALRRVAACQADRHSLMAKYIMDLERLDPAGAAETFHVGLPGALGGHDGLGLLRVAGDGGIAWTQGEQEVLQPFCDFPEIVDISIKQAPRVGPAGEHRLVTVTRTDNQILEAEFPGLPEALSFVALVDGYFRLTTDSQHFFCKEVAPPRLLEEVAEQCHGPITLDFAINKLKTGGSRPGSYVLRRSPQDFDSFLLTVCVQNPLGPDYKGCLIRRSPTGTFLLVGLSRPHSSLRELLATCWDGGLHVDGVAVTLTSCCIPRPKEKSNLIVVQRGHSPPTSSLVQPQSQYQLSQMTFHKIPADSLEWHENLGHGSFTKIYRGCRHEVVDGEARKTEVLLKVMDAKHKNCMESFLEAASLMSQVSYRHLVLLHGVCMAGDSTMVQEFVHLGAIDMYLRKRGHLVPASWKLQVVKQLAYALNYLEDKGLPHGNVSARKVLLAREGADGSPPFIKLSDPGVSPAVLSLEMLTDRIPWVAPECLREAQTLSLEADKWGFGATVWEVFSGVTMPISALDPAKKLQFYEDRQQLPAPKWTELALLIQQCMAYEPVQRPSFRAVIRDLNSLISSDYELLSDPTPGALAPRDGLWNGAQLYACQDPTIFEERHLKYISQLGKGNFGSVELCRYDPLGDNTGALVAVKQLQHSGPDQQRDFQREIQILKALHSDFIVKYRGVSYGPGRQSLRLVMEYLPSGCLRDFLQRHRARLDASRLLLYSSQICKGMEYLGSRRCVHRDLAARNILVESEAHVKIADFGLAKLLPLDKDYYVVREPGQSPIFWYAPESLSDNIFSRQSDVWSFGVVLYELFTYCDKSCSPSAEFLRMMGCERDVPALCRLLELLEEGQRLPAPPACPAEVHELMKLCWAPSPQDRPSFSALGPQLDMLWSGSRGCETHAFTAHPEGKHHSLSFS
Outline: as §1

Recombinant JAK2 = target: T3, Recombinant JAK2 (Homo sapiens, UniProt O60674); test: JAK biochemical assay (LANCE Ultra TR-FRET), JAK2; conditions: recombinant JAK2, TR-FRET; read-out: Biochemical Assay (μM) JAK2
T3 construct: purchased Carna Biosciences
Outline: as §1

Recombinant JAK1 = target: T4, Recombinant JAK1 (Homo sapiens, UniProt P23458); test: JAK biochemical assay (LANCE Ultra TR-FRET), JAK1; conditions: recombinant JAK1, TR-FRET; read-out: Biochemical Assay (μM) JAK1
T4 construct: purchased Carna Biosciences
Outline: as §1

T1 sequence (P29597 whole entry): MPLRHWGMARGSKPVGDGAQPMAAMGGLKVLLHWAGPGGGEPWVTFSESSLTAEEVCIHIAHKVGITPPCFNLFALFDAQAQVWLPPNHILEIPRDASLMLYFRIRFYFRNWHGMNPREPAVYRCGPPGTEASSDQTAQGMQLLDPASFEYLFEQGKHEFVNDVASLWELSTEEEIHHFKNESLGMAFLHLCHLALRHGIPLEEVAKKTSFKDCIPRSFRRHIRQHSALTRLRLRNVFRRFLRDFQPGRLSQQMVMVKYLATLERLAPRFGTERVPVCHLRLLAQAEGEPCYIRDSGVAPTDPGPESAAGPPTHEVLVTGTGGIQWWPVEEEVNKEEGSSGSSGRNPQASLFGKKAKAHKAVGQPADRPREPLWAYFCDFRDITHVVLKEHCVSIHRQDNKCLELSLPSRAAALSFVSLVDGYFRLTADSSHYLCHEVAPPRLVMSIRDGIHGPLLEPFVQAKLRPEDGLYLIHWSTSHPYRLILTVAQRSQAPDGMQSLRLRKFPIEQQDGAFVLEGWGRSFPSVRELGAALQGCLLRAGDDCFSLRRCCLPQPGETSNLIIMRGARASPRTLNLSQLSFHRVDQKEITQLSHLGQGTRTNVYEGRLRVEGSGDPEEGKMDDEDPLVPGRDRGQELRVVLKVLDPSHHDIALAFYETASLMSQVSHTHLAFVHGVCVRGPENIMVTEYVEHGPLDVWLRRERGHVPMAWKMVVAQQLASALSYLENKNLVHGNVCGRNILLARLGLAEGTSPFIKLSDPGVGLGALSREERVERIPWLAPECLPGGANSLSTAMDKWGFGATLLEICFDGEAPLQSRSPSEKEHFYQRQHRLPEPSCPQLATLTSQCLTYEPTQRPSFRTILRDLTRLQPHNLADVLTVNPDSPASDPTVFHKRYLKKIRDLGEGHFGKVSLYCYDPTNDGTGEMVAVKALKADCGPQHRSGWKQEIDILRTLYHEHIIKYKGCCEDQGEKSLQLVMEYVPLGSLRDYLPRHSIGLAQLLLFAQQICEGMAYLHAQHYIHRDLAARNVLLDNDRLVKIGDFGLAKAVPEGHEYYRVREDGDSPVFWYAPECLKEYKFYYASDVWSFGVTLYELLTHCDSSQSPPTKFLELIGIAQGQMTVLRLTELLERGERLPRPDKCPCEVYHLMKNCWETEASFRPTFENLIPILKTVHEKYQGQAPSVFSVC
T4 sequence (P23458 whole entry): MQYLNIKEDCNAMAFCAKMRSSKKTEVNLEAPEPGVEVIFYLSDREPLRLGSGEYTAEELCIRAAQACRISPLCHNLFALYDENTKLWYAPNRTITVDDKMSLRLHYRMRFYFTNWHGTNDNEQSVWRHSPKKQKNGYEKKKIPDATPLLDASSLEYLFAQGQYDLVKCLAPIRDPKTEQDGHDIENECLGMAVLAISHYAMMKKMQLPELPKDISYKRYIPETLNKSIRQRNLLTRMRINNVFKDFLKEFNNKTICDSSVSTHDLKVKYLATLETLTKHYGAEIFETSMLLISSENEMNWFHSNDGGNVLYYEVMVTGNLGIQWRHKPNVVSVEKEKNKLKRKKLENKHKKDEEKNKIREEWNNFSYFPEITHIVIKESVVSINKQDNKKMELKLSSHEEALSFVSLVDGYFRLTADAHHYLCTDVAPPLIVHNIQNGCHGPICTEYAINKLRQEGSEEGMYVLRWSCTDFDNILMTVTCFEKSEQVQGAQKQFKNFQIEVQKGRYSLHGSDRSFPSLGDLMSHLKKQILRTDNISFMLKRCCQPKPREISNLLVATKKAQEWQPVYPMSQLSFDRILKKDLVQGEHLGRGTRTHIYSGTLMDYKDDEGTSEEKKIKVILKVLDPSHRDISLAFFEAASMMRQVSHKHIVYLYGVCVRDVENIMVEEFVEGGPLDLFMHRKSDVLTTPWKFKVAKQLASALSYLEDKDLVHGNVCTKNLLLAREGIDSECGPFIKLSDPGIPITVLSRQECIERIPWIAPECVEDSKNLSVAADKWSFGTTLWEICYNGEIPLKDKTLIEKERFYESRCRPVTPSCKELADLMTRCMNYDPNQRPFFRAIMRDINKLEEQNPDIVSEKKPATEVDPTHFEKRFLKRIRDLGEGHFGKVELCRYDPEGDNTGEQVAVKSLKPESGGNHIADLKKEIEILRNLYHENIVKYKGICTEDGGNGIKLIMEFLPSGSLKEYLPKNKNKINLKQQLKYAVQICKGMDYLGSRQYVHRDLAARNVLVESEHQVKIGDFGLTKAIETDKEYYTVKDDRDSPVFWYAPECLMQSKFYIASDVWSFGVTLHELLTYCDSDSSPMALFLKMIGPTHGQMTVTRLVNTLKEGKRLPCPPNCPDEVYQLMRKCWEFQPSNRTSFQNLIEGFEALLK
T3 sequence (O60674 whole entry): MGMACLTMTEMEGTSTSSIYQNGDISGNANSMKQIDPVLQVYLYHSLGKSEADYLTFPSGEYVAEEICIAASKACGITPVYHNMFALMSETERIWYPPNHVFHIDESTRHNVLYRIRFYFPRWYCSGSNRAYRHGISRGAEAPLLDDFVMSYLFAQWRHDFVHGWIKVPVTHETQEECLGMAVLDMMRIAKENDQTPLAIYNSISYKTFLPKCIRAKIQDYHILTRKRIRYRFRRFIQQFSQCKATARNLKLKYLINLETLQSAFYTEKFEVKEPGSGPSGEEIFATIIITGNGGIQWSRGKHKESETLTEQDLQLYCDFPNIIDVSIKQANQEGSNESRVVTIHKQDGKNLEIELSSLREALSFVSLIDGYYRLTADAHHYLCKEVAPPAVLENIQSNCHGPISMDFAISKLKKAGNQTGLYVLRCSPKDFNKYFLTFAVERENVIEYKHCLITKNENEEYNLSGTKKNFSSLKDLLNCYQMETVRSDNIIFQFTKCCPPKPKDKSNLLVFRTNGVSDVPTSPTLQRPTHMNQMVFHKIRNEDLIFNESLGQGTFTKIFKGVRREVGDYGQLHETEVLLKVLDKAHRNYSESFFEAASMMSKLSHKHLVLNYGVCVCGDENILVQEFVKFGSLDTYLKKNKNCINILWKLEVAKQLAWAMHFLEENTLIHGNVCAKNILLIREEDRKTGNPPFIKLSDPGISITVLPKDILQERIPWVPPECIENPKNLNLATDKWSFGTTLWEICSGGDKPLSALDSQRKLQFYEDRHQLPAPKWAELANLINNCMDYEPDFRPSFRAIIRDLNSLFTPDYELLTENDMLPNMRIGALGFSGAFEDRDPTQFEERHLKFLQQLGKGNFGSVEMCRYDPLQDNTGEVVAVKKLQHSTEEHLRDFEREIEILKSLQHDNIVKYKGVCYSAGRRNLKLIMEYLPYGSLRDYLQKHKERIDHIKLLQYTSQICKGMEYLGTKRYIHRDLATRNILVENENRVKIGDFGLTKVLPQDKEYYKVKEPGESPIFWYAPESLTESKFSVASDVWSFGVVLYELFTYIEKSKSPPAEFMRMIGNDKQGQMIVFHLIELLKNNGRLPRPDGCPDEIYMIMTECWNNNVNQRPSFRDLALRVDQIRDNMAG

SMILES | IC50 (Recombinant TYK2) [µM] | IC50 [1] [µM] | IC50 ([2]; HT2, HT-2 cells) [µM] | IC50 (Recombinant JAK3) [µM] | IC50 (Recombinant JAK2) [µM] | IC50 (Recombinant JAK1) [µM] | IC50 ([2]; HT-2 cells) [µM]
CNC(=O)C[C@@H](c1ccc(-n2cc(-c3ccnc4[nH]cnc34)cn2)nc1)C(F)(F)F [Example 1214, (S)-3-(6-(4-(3H-imidazo[4,5-b]pyridin-7-yl)-1H-pyrazol-1-yl)pyridin-3-yl)-4,4,4-trifluoro-N-methylbutanamide] | > 1 | > 1 | > 1 | < 0.1 | < 0.5 | < 0.1 | 
CNC(=O)CCC(c1ccc(-n2cc(-c3ccnc4[nH]cnc34)cn2)nc1)C(F)(F)F (centres unmarked) [Example 1148, 4-(6-(4-(3H-imidazo[4,5-b]pyridin-7-yl)-1H-pyrazol-1-yl)pyridin-3-yl)-5,5,5-trifluoro-N-methylpentanamide] | > 1 | > 0.5 | > 1 | < 0.1 | < 0.1 | < 0.1 | 
CNCC[C@@H](c1ccc(-n2cc(-c3ccnc4[nH]cnc34)cn2)nc1)C(F)(F)F [Example 1217, (S)-3-(6-(4-(3H-imidazo[4,5-b]pyridin-7-yl)-1H-pyrazol-1-yl)pyridin-3-yl)-4,4,4-trifluoro-N-methylbutan-1-amine, TFA salt] | 0.08 | > 0.1 | > 0.5 | 0.006 | 0.007 | 0.0026 | 
OC(CN1CCOCC1)(c1ccc(-n2cc(-c3ccnc4[nH]cnc34)cn2)nc1)C(F)(F)F (centres unmarked) [Example 1229, 2-(6-(4-(3H-imidazo[4,5-b]pyridin-7-yl)-1H-pyrazol-1-yl)pyridin-3-yl)-1,1,1-trifluoro-3-morpholinopropan-2-ol] | > 1 | > 1 | > 1 | < 0.1 | < 0.1 | < 0.1 | 
N#CCC(=O)NC(c1ccc(-n2cc(-c3ccnc4[nH]cnc34)cn2)nc1)C(F)(F)F (centres unmarked) [Example 1192, N-(1-(6-(4-(3H-imidazo[4,5-b]pyridin-7-yl)-1H-pyrazol-1-yl)pyridin-3-yl)-2,2,2-trifluoroethyl)-2-cyanoacetamide] | > 1 | > 0.8 | > 0.8 | < 0.1 | < 0.1 | < 0.1 | 
CC(C)NCC[C@@H](c1ccc(-n2cc(-c3ccnc4[nH]cnc34)cn2)nc1)C(F)(F)F [Example 1207, (S)-3-(6-(4-(3H-imidazo[4,5-b]pyridin-7-yl)-1H-pyrazol-1-yl)pyridin-3-yl)-4,4,4-trifluoro-N-isopropylbutan-1-amine] | > 0.5 | 0.43 | 1.08 | 0.005 | 0.01 | 0.005 | 
CC(C)N1CCC([C@@](O)(c2ccc(-n3cc(-c4ccnc5[nH]cnc45)cn3)cc2)C(F)(F)F)C1 (stereo partly drawn) [Example 1252, (R)-1-(4-(4-(3H-imidazo[4,5-b]pyridin-7-yl)-1H-pyrazol-1-yl)phenyl)-2,2,2-trifluoro-1-(1-isopropylpyrrolidin-3-yl)ethanol] | > 0.5 | 1.1 | 1.63 | < 0.1 | < 0.1 | < 0.1 | 
CNC(=O)N1CC(C(O)(c2ccc(-n3cc(-c4ccnc5[nH]cnc45)cn3)nc2)C(F)(F)F)C1 (centres unmarked) [Example 1246, 3-(1-(6-(4-(3H-imidazo[4,5-b]pyridin-7-yl)-1H-pyrazol-1-yl)pyridin-3-yl)-2,2,2-trifluoro-1-hydroxyethyl)-N-methylazetidine-1-carboxamide] | 0.79 | 1.5 | 2 | 0.006 | 0.034 | 0.006 | 
N#CC1CN(C(=O)CCC(c2ccc(-n3cc(-c4ccnc5[nH]cnc45)cn3)nc2)C(F)(F)F)C1 (centres unmarked) [Example 1250, 1-(4-(6-(4-(3H-imidazo[4,5-b]pyridin-7-yl)-1H-pyrazol-1-yl)pyridin-3-yl)-5,5,5-trifluoropentanoyl)azetidine-3-carbonitrile] | > 1 | > 1 | > 1 | < 0.1 | < 0.1 | < 0.1 | 
OC(CCN1CCOCC1)(c1ccc(-n2cc(-c3ccnc4[nH]cnc34)cn2)nc1)C(F)(F)F (centres unmarked) [Example 1230, 2-(6-(4-(3H-imidazo[4,5-b]pyridin-7-yl)-1H-pyrazol-1-yl)pyridin-3-yl)-1,1,1-trifluoro-4-morpholinobutan-2-ol] | > 0.5 | > 0.5 | > 0.5 | < 0.1 | < 0.1 | < 0.1 | 
CS(=O)(=O)CCC(c1ccc(-n2cc(-c3ccnc4[nH]cnc34)cn2)cc1)C(F)(F)F (centres unmarked) [Example 1190, 7-(1-(4-(1,1,1-trifluoro-4-(methylsulfonyl)butan-2-yl)phenyl)-1H-pyrazol-4-yl)-3H-imidazo[4,5-b]pyridine] | > 1 | 1 | 3.6 | < 0.1 | < 0.1 | < 0.1 | 
N#CC(C(=O)NCC(F)(F)F)c1ccc(-n2cc(-c3ccnc4[nH]cnc34)cn2)nc1 (centres unmarked) [Example 1168, 2-(6-(4-(3H-imidazo[4,5-b]pyridin-7-yl)-1H-pyrazol-1-yl)pyridin-3-yl)-2-cyano-N-(2,2,2-trifluoroethyl)acetamide] | > 1 | > 1 | > 1 | > 0.1 | > 0.5 | > 0.1 | 
O=C(NCCC(c1ccc(-n2cc(-c3ccnc4[nH]cnc34)cn2)nc1)C(F)(F)F)C1CC1 (centres unmarked) [Example 1149, N-(3-(6-(4-(3H-imidazo[4,5-b]pyridin-7-yl)-1H-pyrazol-1-yl)pyridin-3-yl)-4,4,4-trifluorobutyl)cyclopropanecarboxamide] | > 1 | > 0.5 | > 0.5 | < 0.1 | > 0.1 | < 0.1 | 
CNCCC(c1ccc(-n2cc(-c3ccnc4[nH]cnc34)cn2)nc1)C(F)(F)F (centres unmarked) [Example 1152, 3-(6-(4-(3H-imidazo[4,5-b]pyridin-7-yl)-1H-pyrazol-1-yl)pyridin-3-yl)-4,4,4-trifluoro-N-methylbutan-1-amine] | > 0.5 | > 0.1 |  | < 0.1 | < 0.1 | < 0.1 | > 0.1
CC(C)C(=O)NCCC(c1ccc(-n2cc(-c3ccnc4[nH]cnc34)cn2)nc1)C(F)(F)F (centres unmarked) [Example 1247, N-(3-(6-(4-(3H-imidazo[4,5-b]pyridin-7-yl)-1H-pyrazol-1-yl)pyridin-3-yl)-4,4,4-trifluorobutyl)isobutyramide] | 0.19 | > 1 | > 1 | 0.023 | 0.06 |  | 
